From doi:10.1101/2024.02.16.580637v1 (biorxiv, 2024) come the findings set out here.

What all share (assay): grating-coupled interferometry
Common to all, as to format: binding
Holding throughout (conditions): 20 mM Tris/HCl pH 7.5, 150 mM NaCl; mass transport limitation model

Experiment [1] addresses T1, BtuG3 (Bacteroides thetaiotaomicron, UniProt Q8A5Z1, A261W).
T1 sequence (Q8A5Z1 34-355 A261W): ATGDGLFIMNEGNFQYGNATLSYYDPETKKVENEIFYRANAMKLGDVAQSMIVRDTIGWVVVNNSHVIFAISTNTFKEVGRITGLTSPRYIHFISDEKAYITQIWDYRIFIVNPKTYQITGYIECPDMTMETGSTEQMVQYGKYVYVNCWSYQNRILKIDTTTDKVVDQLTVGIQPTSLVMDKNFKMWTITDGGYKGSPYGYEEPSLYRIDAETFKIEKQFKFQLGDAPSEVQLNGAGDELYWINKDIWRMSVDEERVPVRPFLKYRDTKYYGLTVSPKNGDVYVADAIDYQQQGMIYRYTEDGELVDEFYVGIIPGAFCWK

Experiment [2] has as its target T2, BtuG1 (Bacteroides thetaiotaomicron, UniProt Q8A7N4).
T2 sequence (Q8A7N4 28-442): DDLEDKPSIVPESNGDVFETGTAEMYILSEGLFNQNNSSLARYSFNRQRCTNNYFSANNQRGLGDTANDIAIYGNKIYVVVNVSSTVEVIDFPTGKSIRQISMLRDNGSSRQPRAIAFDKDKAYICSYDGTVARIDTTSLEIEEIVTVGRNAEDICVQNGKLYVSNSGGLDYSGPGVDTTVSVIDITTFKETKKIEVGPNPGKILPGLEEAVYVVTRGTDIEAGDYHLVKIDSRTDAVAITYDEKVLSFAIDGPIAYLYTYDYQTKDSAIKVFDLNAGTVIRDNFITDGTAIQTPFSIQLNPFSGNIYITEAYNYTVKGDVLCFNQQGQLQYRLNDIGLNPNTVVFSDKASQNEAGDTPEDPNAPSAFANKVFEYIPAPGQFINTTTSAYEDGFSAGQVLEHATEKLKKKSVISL

In experiment [3] the target is T3, BtuG3 (Bacteroides thetaiotaomicron, UniProt Q8A5Z1).
T3 sequence (Q8A5Z1 34-355): T1 sequence (Q8A5Z1 34-355 A261W)

Experiment [4] addresses T4, BtuG2 (Bacteroides thetaiotaomicron, UniProt Q8A6D0).
T4 sequence (Q8A6D0 47-366): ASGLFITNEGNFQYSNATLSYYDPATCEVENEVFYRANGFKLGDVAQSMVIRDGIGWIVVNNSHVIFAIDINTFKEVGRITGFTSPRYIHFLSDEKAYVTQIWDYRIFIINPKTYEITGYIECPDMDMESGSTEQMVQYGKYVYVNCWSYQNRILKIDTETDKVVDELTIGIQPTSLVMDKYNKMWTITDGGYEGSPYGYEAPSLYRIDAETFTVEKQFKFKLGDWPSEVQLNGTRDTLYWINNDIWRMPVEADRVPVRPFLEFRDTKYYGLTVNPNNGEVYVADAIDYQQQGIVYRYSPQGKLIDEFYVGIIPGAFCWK

With `C/C1=C2/[N-][C@H]([C@H](CC(N)=O)[C@@]2(C)CCC(=O)NC[C@@H](C)OP(=O)([O-])O[C@H]2[C@@H](O)[C@@H](n3cnc4cc(C)c(C)cc43)O[C@@H]2CO)[C@]2(C)N=C(/C(C)=C3N=C(/C=C4N=C1[C@@H](CCC(N)=O)C\4(C)C)[C@@H](CCC(N)=O)[C@]\3(C)CC(N)=O)[C@@H](CCC(N)=O)[C@]2(C)CC(N)=O.[Co+3].[OH-]` [OHCbl, hydroxycobalamin], the Kd in experiment [1] was 1.4 · 10^-10 M; in experiment [2], 3.0 · 10^-12 M; in experiment [3] it was 2.8 · 10^-11 ± 3.9 · 10^-11 M; in experiment [4], 2.2 · 10^-12 M.
